Target: Human immunodeficiency virus type 1 protease (Human immunodeficiency virus 1, UniProt Q72874)
Assay: Compound was evaluated for the inhibition of recombinant HIV-1 protease at 37 degrees C and pH of 6.

| SMILES | Ki [µM] |
| --- | --- |
| OC[C@]1(Cc2ccccc2)C[C@H](O)C[C@](CO)(Cc2ccccc2)[C@H]1O | 48 |
| OC[C@]1(Cc2ccccc2)C[C@H](O)C[C@](CO)(Cc2ccccc2)[C@@H]1O | 830 |
| OC1[C@@](O)(Cc2ccccc2)CCC[C@]1(O)Cc1ccccc1 | > 2000 |
| O=C1C[C@](O)(Cc2ccccc2)C(O)[C@@](O)(Cc2ccccc2)C1 | 10 |
| O[C@H]1C[C@H](Cc2ccccc2)[C@H](O)[C@@H](Cc2ccccc2)C1 | > 2000 |
| O=C1C[C@](CO)(Cc2ccccc2)C(O)[C@@](CO)(Cc2ccccc2)C1 | 62 |
| [O-][S+]1C[C@](CO)(Cc2ccccc2)C(O)[C@@](CO)(Cc2ccccc2)C1 (stereo in doubt; (+)7) | 7 |
| [O-][S+]1C[C@](CO)(Cc2ccccc2)C(O)[C@@](CO)(Cc2ccccc2)C1 (stereo in doubt; (-)7) | 19 |

From ChEMBL document CHEMBL1152053, “Nonpeptide HIV protease inhibitors designed to replace a bound water” (Bioorg Med Chem Lett, 1993)
